Results from patent publication US10532028B2, “Method to improve characteristics of spray dried powders and granulated materials, and the products thereby produced” (ISP INVESTMENTS LLC, priority 2005, dated 2020).

Key:
[1] = Crystallinity by (modulated) differential scanning calorimetry; assay type: physicochemical; settings: MDSC, heat-only conditions, aluminum hermetic pans
Description: • 1. 1 part Carbamazepine (CBZ) was spray dried with 1 part polyvinylpyrrolidone (PVP) (Plasdone® K-29/32, International Specialty Products) and 1 part polyvinylpyrrolidone-co-vinyl acetate (PVP-VA) (Plasdone® S-630, International Specialty Products) from solvent and solvent/non-solvent solutions at 10% solids by weight. Solvent was dichloromethane (20%), non-solvent was acetone (80%). • 2. Spray drying was conducted on an SD-Micro® (Niro, Inc.) spray dryer under identical experimental conditions other than solvent composition. • 3. Results: • a. […] CBZ from solvent/non-solvent solution • 1) Particle morphology: spherical as shown in FIG. 2B. • 2) Particle size (from optical microscopy): 3 μm-5 μm • 3) Residual solvent immediately after spray drying: 2.0% • 4) Bulk density: 0.057 g/mL • 5) Density after 1250 taps: 0.18 g/mL • 6) Spherical morphology was unexpected, based on previous examples, expected particles to be dimpled, raisin-like, or folded.
• The two solutions were spray dried under identical conditions on an SD-Micro® (Niro, Inc.) spray dryer to yield spray dried powders. • 2. The two compositions were analyzed for EFV crystallinity using differential scanning calorimetry. Both powders were amorphous, as indicated by the absence of an EFV melt endotherm (FIG. 5). • 3. […]

[2] = CoQ10 USP dissolution, apparatus II (paddles); assay type: physicochemical; settings: 37° C.
From the text: • 1. Coenzyme Q10 (CoQ10) was spray dried with polyvinylpyrrolidone (PVP) (Plasdone® K-29/32, International Specialty Products) in the ratio 1 CoQ10:3 PVP at 20% total solids. Two spray dried powders were produced, one from 100% dichloromethane (DCM) and the other from a blend of 80% DCM, 20% acetone. CoQ10 is soluble in both DCM and acetone, while PVP is only soluble in DCM. All other spray drying conditions remained the same. • 2. Sample analysis included USP dissolution using apparatus II (paddles). All samples were hand-filled into size 1 gelatin capsules. The bath temperature was 37° C. with a paddle speed of 50 rpm for the first 60 minutes and then 200 rpm for an additional 15 minutes. The dissolution media contained 2% Cremophor® EL (BASF Corp.), and 4% Acconon® MC8 (Abitec Corp.). […] It is surprising that the time for 50% CoQ10 dissolution (t50%) was shortened from 18 minutes (100% solvent) to 5 minutes (solvent/non-solvent blend). Similarly, the time for 80% CoQ10 dissolution (t80%) was shortened from 68 minutes to 12 minutes by the switch from 100% solvent to the solvent/non-solvent blend. • 4. […] Other advantages of the solvent/non-solvent blend approach include lower residual solvent content and higher density.

[3] = Table 1, 75 minutes test, 2% Cremophor EL + 4% Acconon MC8

crystallinity [1]: 100%
max. CoQ10 release ([2]; 50 rpm for 60 min then 200 rpm for 15 min, 2% Cremophor EL + 4% Acconon MC8, size 1 gelatin capsules): 4.3%
T80% (time for 80% CoQ10 dissolution) [2, 3]: not attained
t50% (time for 50% CoQ10 dissolution) [2, 3]: not attained
Compound: COC1=C(OC)C(=O)C(C/C=C(\C)CC/C=C(\C)CC/C=C(\C)CC/C=C(\C)CC/C=C(\C)CC/C=C(\C)CC/C=C(\C)CC/C=C(\C)CC/C=C(\C)CCC=C(C)C)=C(C)C1=O [CoQ10 (as received), Coenzyme Q10]
